# Measured values: US4578376A, “Pharmaceutical compositions for the treatment of osteopathias” (Istituto Gentili S.p.A., priority 1981, dated 1986)
# Entries after “also recorded” stand apart in the source; their conditions may differ. Structures can show the parent of a compound that is named as a salt. Where two headings read alike, the source gives them in different places.
# How the values were obtained:
# bone reabsorption = assay: Bone reabsorption and in vivo calcification (mineral density in the tibia metaphysis, body weight); parameters: species or system Wistar rats
# Experimental: Groups of five Wistar rats of weight between 180 and 200 grams have been treated for seven days with 0.01, 0.1, 1.0 and 10 mg P/kg of AHEDP or with a physiological solution by the subcutaneous route. The animals have been fed with Altromine 1314 containing 1.1 gram per 100 grams of calcium, 1.2 grams per 100 grams P and 250 IU per 100 grams of Vitamin D3. On the eighth day, the animals were killed and the tibia bones are removed and fixed in 50% ethanol. The tibia bones were then prepared for the histological examination and sections of 70-80μ thickness have been prepared for the microradiological study. This procedure has permitted an estimate of the mineral density in the metaphysis (Schenk, et al. Calc. Tiss. Res. 11, 196-214, 1973).
# Swiss mice = assay: Toxicity (DL50) in Swiss mice; format: in vivo, both male and female
# Excerpt: (§1) In vivo, the degree of toxicity of AHEDP has been determined in Swiss mice, both male and female by various routes of administration and by comparison with some of the best known and used diphosphonates.
# [1] = Toxicity (DL50) in Swiss mice; format: in vivo, both male and female; details: mouse, in vivo, Swiss mice male and female
# Excerpt: as §1
# [2] = tested on: demineralizing osteopathias, characterized by a high rate of bone reabsorption; assay: Clinical study: metabolism of phosphorus and calcium, indexes of bone reabsorption; format: in vivo
# Excerpt: In view of the favorable pharmacological and toxicological results, the substance, AHEDP, has been tested clinically. The study deals with the effects on the metabolism of phosphorus and calcium of the new diphosphonate according to the present invention used in the treatment of demineralizing osteopathias, characterized by a high rate of bone reabsorption.
# (§2) Six individuals affected by the bone disease called Paget's condition, that is three men and three women of age between 52 and 68; three individuals affected by metastatic osteolysis, resulting from mammary carcinoma, that is three women between age 42 and 59 years old.
# (§3) In eight cases, that is five individuals affected by Paget's disease and three individuals affected by osteolysis, the treatment has been carried out for fifteen days (in one of the cases of the individuals affected by Paget's disease, treatment continued for an additional fifteen days of therapy with a higher dosage); in the ninth case of the individual affected by Paget's disease, the treatment was continued for thirty days.
# (§4) The first four cases, that is two individuals affected by Paget's disease and two individuals affected by osteolysis, have received dosage of AHEDP of 5 mg daily by the intravenous route (slow infusion); in the fifth case, the individual affected by Paget's disease, received a dose of 10 mg daily for fifteen days and then 20 mg daily for an additional period of fifteen days. Three other cases, that is two individuals affected by Paget's disease and one individual affected by osteolysis have been administered doses of 20 mg daily for fifteen days. The ninth individual affected by Paget's disease, has been treated with doses of 40 mg daily for 30 days.
# (§5) Several parameters have been studied prior to the treatment, during the treatment and at the end of the treatment with respect to the metabolism of phosphorus and calcium and the tolerability of the substance.
# calcemia, phosphatemia, alkaline phosphatasemia, plasmatic PGE2, plasmatic iPTH, calciuria, phosphaturia, hydroxyprolinuria, cyclic nephrogenic AMP.
# calvaria cells = assay: cells; format: cell-based, Wistar rats
# Experimental: Cellular culture; the cells are first cultured in accordance with the method reported by Fast, et al., (Biochemical Journal, 172, 97-107 (1978). In short, calvaria removed from Wistar rats one day old has been digested with collagenase. The freed cells have been placed on plates in a concentration of […] per ml of medium in Petri dishes of 3.5 cm diameter containing 1.5 ml of medium in dishes of 1.6 cm diameter containing 0.5 ml of medium. The cells have been cultivated in the essential minimum medium containing 10% of fetal calf serum in an atmophere of 5% CO2 at 37° C. up to the seventh or eighth day. The diphosphonates have been added on the first day up to the end of the experiment.
# The cells have been counted with a Coulter counter after having been freed from the dishes by digestion with a mixture of collagenase and trypsin. On the seventh day, the mixture has been changed and the cells have been incubated for sixteen hours. The so obtained lactate during this period has been measured according to the method of Fast, et al.
# Solubility = format: physicochemical
# [3] = Clinical study: tolerability; format: in vivo
# Excerpt: as §2, §3, §4, §5
# Hemochromocytometric examination, proteinemia, glycemia, azotemia, creatininemia, transaminasemia, immunoglobulin.
# [4] = no APD clinical test described in the patent; cited from earlier work
# Toxicity (DL50) in rats = details: rat, in vivo, iv; I.v., rats (footnote *)
# [5] = solutions, very low concentrations; cited from earlier work
# [6] = oral route or systemic route; cited from earlier work
# [7] = Rattus norvegicus, read-out: No. of Cells, % of control ± E.S.
smiles,measurement,setting,value
"NCCCCCC(O)(P(=O)(O)O)P(=O)(O)O [AHEDP, 6-amino-1-hydroxyhexane-1,1-diphosphonic acid]",density of the bone,"bone reabsorption; 0.01 mg P/kg, subcutaneous, seven days",no effect on the density of the bone
same,inhibition of the bone reabsorption,bone reabsorption; 0.1 mg and particularly 1 mg P/kg,a clear inhibition of the bone reabsorption
same,density of the metaphyses,"bone reabsorption; 0.1 mg and particularly 1 mg P/kg, subcutaneous, seven days",an increase in the density of the metaphyses
same,influence on the body weight,"bone reabsorption; 0.01, 0.1, 1.0 mg P/kg, subcutaneous, seven days",No treatment has shown any influence on the body weight
same,influence on the body weight,"bone reabsorption; 10 mg P/kg, subcutaneous, seven days","except in the dose of 10 mg P/kg, which obviously has no significant value"
same,"inhibition of the bone reabsorption, in words and in comparison with other well-known diphosphonates","bone reabsorption; rat, in vivo",powerful inhibitor of the bone reabsorption in a degree superior or similar to that of other well-known diphosphonates
same,degree of toxicity (in words),Swiss mice; every route of administration,low degree of toxicity in every route of administration
same,tolerance in comparison with the analog ADP,"Swiss mice; mouse, in vivo",superior tolerance
same,LD50,"[1]; ip, I.p.",650 mg/kg
same,LD50,"[1]; iv, I.v.",85 mg/kg
same,LD50,"[1]; po, OS (orally)",> 2000 mg/kg
same,plasmatic PGE2,"[2]; 10 mg daily, one individual with Paget's disease",has not caused any change in this parameter
same,osteolysis and plasmatic alkaline phosphatase (both parameters),"[2]; 40 mg daily, one individual",a reduction of both parameters
same,alkaline phosphatasemia,"[2]; 40 mg daily, one individual (Paget's disease in active phase)",clear and rapid decrease of the alkaline phosphatasemia levels
same,urinary excretion of inorganic calcium and inorganic phosphates,[2]; 5-10 mg daily,have not modified to a significant degree
same,alkaline phosphatasemia / indexes of osteoblastic activity,[2]; 5-10-20 mg daily,have not been modified; also recorded: have not caused significant modifications in the plasmatic alkaline phosphatase
same,osteolysis,[2]; 5-10-20 mg daily,blocking osteolysis
same,"indexes of parathyroid activity (plasmatic immunoreactive PTH, cyclic nephrogenic AMP)",[2]; 5-10-20-40 mg daily,have not caused significant modification changes in the indexes of parathyroid activity
same,plasmatic PGE2,"[2]; 20-40 mg daily, three individuals with Paget's disease and high prior levels",substantial and rapid decrease in the plasmatic PGE2 in all three individuals
same,urinary excretion of inorganic calcium and inorganic phosphates,"[2]; 20-40 mg daily, obvious particularly in phosphaturia",significant increases of these two parameters
same,urinary excretion of hydroxyproline,[2]; all the individuals treated,reduced to a significant extent in all the individuals treated; also recorded: prompt and progressive reduction of the urinary excretion of hydroxyproline
same,calcium and phosphate levels of the plasma,[2]; every dosage used,has not caused variations worth mentioning
same,hyperphosphatemia,"[2]; human, in vivo",phases of hyperphosphatemia have not been observed
same,calcemia,[2]; very short periods of some treatments,a low degree of calciemic contents have been noted
same,"hydroxyprolinuria, dependence on dosage",[2]; with respect to the values prior to treatment,"so much greater with respect to the values prior to treatment, the higher the dosage"
same,effect on the number of cells (in words),calvaria cells; 250 μM,"some reductions, although slightly in the number of cells"
same,effect on the production of the lactate (in words),calvaria cells; 250 μM,increase in the production of the lactate
same,activity at 0.25 µM,"calvaria cells; Rattus norvegicus, 0.25 μM, read-out: No. of Cells, % of control ± E.S.",96.6 ± 1.7%
same,activity at 2.5 µM,"calvaria cells; Rattus norvegicus, 2.5 μM, * = significance with respect to the control (APD), read-out: No. of Cells, % of control ± E.S.",95.7 ± 7.8%
same,activity at 25 µM,"calvaria cells; Rattus norvegicus, 25 μM, * = significance with respect to the control (APD), read-out: No. of Cells, % of control ± E.S.",104 ± 2.1%
same,activity at 250 µM,"calvaria cells; Rattus norvegicus, 250 μM, * = significance with respect to the control (AHEDP), read-out: No. of Cells, % of control ± E.S.",88.4 ± 1.5%
same,"cellular toxicity, times less than APD",calvaria cells; compared with the analog APD,about 100 times less
same,effect on the cellular behavior,calvaria cells; concentrations lower than 250 μM,no negative effect is noted on the cellular behavior
same,solubility in HCl,Solubility; HCl of average concentration,dissolves in HCl of average concentration
same,solubility in water,Solubility; water,little soluble in water
same,solubility with NaOH,Solubility; water with addition of one equivalent of NaOH,dissolves completely by addition of one equivalent of NaOH
same,tolerability,"[3]; 5-40 mg daily intravenous, 15-30 days",well tolerated; also recorded: tolerated in all cases
same,variations in the parameters of tolerability,"[3]; hemochromocytometric examination, proteinemia, glycemia, azotemia, creatininemia, transaminasemia, immunoglobulin",has not caused significant variations in the parameters of tolerability
same,increase of the body temperature or variation in the hematic crasia,"[3]; human, in vivo","in none of the individuals treated, there has been observed an increase of the body temperature or any variation in the hematic crasia"
same,modifications of the hematic crasia and hepatic and renal functions,"[3]; human, in vivo",nor have substantial modifications of the hematic crasia and hepatic and renal functions been noted
same,side effects,"[3]; human, in vivo",no side effects of any significance have been noted; also recorded: no undesirable side effects have been noted
"NCCC(O)(P(=O)([O-])O)P(=O)([O-])O.[Na+].[Na+] [APD, 3-Amino-1-hydroxypropane-1,1-diphosphonic acid disodium salt]",alterations in body temperature and hematic crasia (comparison analog),[4],causes substantial alterations in the parameters discussed hereinabove
same,LD50,"[1]; ip, I.p.",190 mg/kg
same,LD50,"[1]; iv, I.v.",45 mg/kg
same,LD50,"[1]; po, OS (orally)",625 mg/kg
same,activity at 2.5 µM,calvaria cells; [7],90.8 ± 2.1%
same,activity at 25 µM,calvaria cells; [7],64.9 ± 4.1%
same,activity at 250 µM,calvaria cells; [7],0%
"O=P([O-])([O-])C(Cl)(Cl)P(=O)(O)O.[Na+].[Na+] [Cl2 MDP, Dichloromethylenediphosphonic acid disodium salt]",LD50,"[1]; ip, I.p.",780 mg/kg
same,LD50,"[1]; iv, I.v.",75 mg/kg
same,LD50,"[1]; po, OS (orally)",> 2000 mg/kg
"CC(O)(P(=O)(O)O)P(=O)(O)O [EHDP, Ethane-1-hydroxy-1,1-diphosphonic acid disodium salt]",LD50,"[1]; ip, I.p.",250 mg/kg
same,LD50,"[1]; po, OS (orally)",2000 mg/kg
same,LD50,Toxicity (DL50) in rats,35 mg/kg
O=P(O)(O)OP(=O)(O)O [pyrophosphate],precipitation of calcium phosphate,[5],capable of inhibiting the precipitation of calcium phosphate
same,hydrolysis on administration,[6],rapid hydrolysis
